Measured values reported in patent US20210115521A1, “METHOD FOR INHIBITING TUMOR PROGRESSION OR DETERMINING TUMOR PROGRESSION STATE IN GASTRIC CANCER” (National Tsing Hua University, priority 2019, published 2021).
Residues, ends and D or L forms follow the SMILES beside them. *: point of attachment. Cbz = O=C(OCc1ccccc1)*

Legend:
MKN45 cells = assay: Zebrafish xenotransplantation migration assay, MKN45; type: in vivo; settings: MKN45-injected embryos, immersion in 1 μM at 1 dpi, read at 3 dpi
Description: The Tg (fli1: EGFP) zebrafish transgenic strain was purchased from ZIRC (Oregon, USA). The zebrafish embryos, larvae, and adult fish were maintained in the Taiwan Zebrafish Core Facility @ NHRI. At two-day post-fertilization, the embryos were dechorionated and subsequently anesthetized with tricaine (0.04 mg/ml). MKN28 or MKN45 cells were labeled with either CFSE or CM-DiI. Two hundred labeled cells (4.6 nl) were injected into the yolk of two-day old embryo using a Nanoject II Auto-Nanoliter Injector (Drummond Science, Broomall, Pa., USA). Later, individual recipients were examined for fluorescent cells 1 and 3 day-post injection by a fluorescence microscopy (Leica). […]
Next, to evaluate migration behavior using a zebrafish xenotransplantation assay, an efficient in vivo system that utilizes a small number of cells (100 to 200 cells) to accurately monitor cell migratory activity within a couple of days. […] Migration activity was monitored at 1-day postinjection (1 dpi) and 3 dpi by fluorescence microscopy.
Next, to corroborate this finding using a zebrafish xeno-transplantation model. Cells labeled with Vybrant CM-DiI (CM-Dil) (red fluorescence dye) were injected into the embryos of Tg (fli1: EGFP) (fish with green fluorescence in blood vessels), followed by immersion in solutions containing 1 μM m Midostaurin or Bosutinib (a sublethal dose) at 1 dpi. […]

MKN28 cells = assay: Zebrafish xenotransplantation migration assay, MKN28; type: in vivo; settings: MKN28-injected embryos, immersion in 1 μM at 1 dpi, read at 3 dpi
Description: The Tg (fli1: EGFP) zebrafish transgenic strain was purchased from ZIRC (Oregon, USA). […] At two-day post-fertilization, the embryos were dechorionated and subsequently anesthetized with tricaine (0.04 mg/ml). MKN28 or MKN45 cells were labeled with either CFSE or CM-DiI. Two hundred labeled cells (4.6 nl) were injected into the yolk of two-day old embryo using a Nanoject II Auto-Nanoliter Injector (Drummond Science, Broomall, Pa., USA). Later, individual recipients were examined for fluorescent cells 1 and 3 day-post injection by a fluorescence microscopy (Leica).
Next, to evaluate migration behavior using a zebrafish xenotransplantation assay, an efficient in vivo system that utilizes a small number of cells (100 to 200 cells) to accurately monitor cell migratory activity within a couple of days. Cells (pLKO vs. shPHF8) were labeled with carboxyfluorescein succinimidyl ester (CFSE), an amine-reactive green fluorescent dye, and injected into zebrafish embryos. Migration activity was monitored at 1-day postinjection (1 dpi) and 3 dpi by fluorescence microscopy.

PTEN [1] = assay: PTEN protein level by Western blotting in MKN28; type: cell-based, human; settings: MG132-treated pLKO MKN28 cells
Excerpt: FIG. 15. Pharmacological inhibition of PHF8-PKCα-Src-PTEN blocks GC progression in vitro and in vivo. […] Data from FIGS. 15B and 15D are presented as the average of three replicates ±SD **P<0.01 (two-tailed Student's t test). Zebrafish xeno-transplantation assays using Mido or Bosu. […] Cyan, blood vessel. […] Total number of embryos used in vehicle, Mido, and Bosu is shown in the bracket. Data were obtained from three independent studies. **P<0.01 (two-tailed Student's t test).
(§1) For immunoblotting assay, PBS-washed cells collected by scraping were directly lysed in RIPA buffer supplemented with protease inhibitor (Santa Cruz) and PhosSTOP (Sigma). Appropriate amounts of protein were separated on SDS-PAGE and then electrotransferred to PVDF membrane (PALL, Protein Washington, N.Y., USA). After the transfer, each membrane was incubated with appropriate primary antibody overnight at 4° C. and then probed with secondary antibodies conjugated with fluorescence. Odyssey Infrared Imaging System (LI-COR Biosciences, Lincoln, Nebr., USA) was utilized to detect the level of fluorescence. For immunoprecipitation assay, cell pellets were lysed in lysis buffer [50 mM Tris-HCl (pH 7.4), 150 mM NaCl, 0.5% NP40)] containing protease inhibitor (Santa Cruz). […]

PTEN [2] = assay: PTEN protein level by Western blotting in MKN45; type: cell-based, human; settings: MG132-treated pLKO MKN45 cells
Description: FIG. 16. Pharmacological inhibition of PHF8-PKCα-Src-PTEN blocks GC progression in vitro and in vivo. […] Data form FIGS. 16B and 16D are presented as the average of 3 replicates ±SD. *p<0.05, **p<0.01 (two-tailed Student's t test). Zebrafish xenotransplantation assays using Mido or Bosu. Fluorescence microscopic analysis was conducted at 1 dpi and 3 dpi. […] Cyan, blood vessel. Scale bar, 100 μm. […] Total number of embryos used in vehicle, Mido, Bosu is shown in the bracket. Data were obtained from 3 independent studies. *p<0.05 (two-tailed Student's t test).
as §1

For COc1cc(Nc2c(C#N)cnc3cc(OCCCN4CCN(C)CC4)c(OC)cc23)c(Cl)cc1Cl [Bosutinib], the “embryos with migration behavior (metastatic activity)” value (MKN45 cells) was 18.08% and the “embryos with migration behavior (dissemination and invasion)” value (MKN28 cells) was 11.95%.

For CC(C)C[C@@H](C=O)NC(=O)[C@H](CC(C)C)NC(=O)[C@H](CC(C)C)NC(=O)OCc1ccccc1 [MG132] (Cbz-Leu-Leu-Leu-aldehyde), the “PTEN protein level with MG132 treatment” value (PTEN [1]) was “rescued” and the “PTEN protein level with MG132 treatment” value (PTEN [2]) was “rescued”.

With CO[C@@H]1[C@H](N(C)C(=O)c2ccccc2)C[C@H]2O[C@]1(C)n1c3ccccc3c3c4c(c5c6ccccc6n2c5c31)C(=O)NC4 [Midostaurin] the “embryos with migration behavior (metastatic activity)” value (MKN45 cells) was 13.88% and the “embryos with migration behavior (dissemination and invasion)” value (MKN28 cells) was 11%.
